# According to article PMC6720883, “In Vitro Inhibitory Effects of APINACA on Human Major Cytochrome P450, UDP-Glucuronosyltransferase Enzymes, and Drug Transporters” (Molecules, 2019):
# pIC50: −log10 of the molar value. Where two headings read alike, the source gives them in different places.
# How the values were obtained:
# [1] = biological target: CYP2B6 (Homo sapiens, UniProt P20813); assay: Inhibition of CYP2B6-mediated bupropion hydroxylase in ultrapooled human liver microsomes; type: in vitro ADME
# CYP2B6, sequence (P20813 whole entry): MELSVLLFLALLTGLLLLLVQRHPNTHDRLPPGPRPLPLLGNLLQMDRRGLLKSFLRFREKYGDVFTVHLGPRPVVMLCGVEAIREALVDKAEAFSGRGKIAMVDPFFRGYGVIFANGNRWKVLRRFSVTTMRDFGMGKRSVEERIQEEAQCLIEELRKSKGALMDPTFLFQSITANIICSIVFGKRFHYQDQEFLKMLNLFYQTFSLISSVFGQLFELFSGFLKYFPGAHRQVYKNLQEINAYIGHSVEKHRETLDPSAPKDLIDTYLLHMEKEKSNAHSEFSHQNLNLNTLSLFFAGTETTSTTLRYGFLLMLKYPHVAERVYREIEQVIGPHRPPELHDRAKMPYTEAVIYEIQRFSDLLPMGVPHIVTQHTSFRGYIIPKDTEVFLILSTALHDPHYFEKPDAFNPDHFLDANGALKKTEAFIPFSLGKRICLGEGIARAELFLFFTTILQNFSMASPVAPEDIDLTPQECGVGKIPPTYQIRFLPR
# Experimental: After 3 min of preincubation at 37 °C, the reaction mixtures were incubated with the addition of NADPH in a shaking water bath for 15 min at 37 °C. The reaction was stopped by adding 100 μL of ice cold d9-1′-hydroxybufuralol (internal standard) in methanol.
# Next, the reaction mixtures were incubated with a seven-CYP probe substrate cocktail or bupropion for 15 min at 37 °C.
# The LC-MS/MS system was comprised of an Agilent 6495 triple quadrupole mass spectrometer coupled with an Agilent 1290 Infinity system (Agilent Technologies, CA, USA). The column and autosampler temperatures were 40 °C and 4 °C, respectively.
# (§1) The data were processed using Mass Hunter software (Agilent Technologies).
# 12.5 (Systat Software, Inc.; San Jose, CA, USA). […] 1.1 (Systat Software, Inc.).
# [2] = biological target: T1, OAT3 (Homo sapiens, UniProt Q8TCC7); assay: Uptake of [3-H]estrone-3-sulfate in HEK293-OAT3 cells; type: in vitro ADME
# T1 construct: host or cells: HEK293 (transient overexpression)
# T1 sequence (Q8TCC7 1-542): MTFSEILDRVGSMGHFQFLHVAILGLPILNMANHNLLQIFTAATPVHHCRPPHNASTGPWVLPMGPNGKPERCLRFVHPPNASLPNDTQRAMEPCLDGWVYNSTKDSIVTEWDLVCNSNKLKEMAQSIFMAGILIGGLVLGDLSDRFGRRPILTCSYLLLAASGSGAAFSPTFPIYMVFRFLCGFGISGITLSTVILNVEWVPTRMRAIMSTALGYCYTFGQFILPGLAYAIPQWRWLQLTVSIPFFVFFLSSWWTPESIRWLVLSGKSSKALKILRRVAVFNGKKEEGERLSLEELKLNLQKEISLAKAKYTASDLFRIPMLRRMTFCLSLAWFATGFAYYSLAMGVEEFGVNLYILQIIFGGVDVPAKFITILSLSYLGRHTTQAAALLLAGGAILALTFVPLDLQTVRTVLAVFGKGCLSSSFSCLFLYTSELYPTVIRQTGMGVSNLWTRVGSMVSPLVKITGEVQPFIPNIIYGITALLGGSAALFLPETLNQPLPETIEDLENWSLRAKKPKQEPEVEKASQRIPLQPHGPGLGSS
# Experimental: The concentrations and probe substrates were selected as follows: 0.1 μM [3-H]MPP^+ (for OCT1 and OCT2), 0.1 μM [3-H]PAH (for OAT1), 0.1 μM [3-H]ES (for OAT3 and OATP1B1), and 0.1 μM [3-H]EG (for OATP1B3).
# (§2) 1.1 (Systat Software, Inc.).
# [3] = biological target: OATP1B3 (Homo sapiens, UniProt Q9NPD5)
# OATP1B3, sequence (Q9NPD5 whole entry): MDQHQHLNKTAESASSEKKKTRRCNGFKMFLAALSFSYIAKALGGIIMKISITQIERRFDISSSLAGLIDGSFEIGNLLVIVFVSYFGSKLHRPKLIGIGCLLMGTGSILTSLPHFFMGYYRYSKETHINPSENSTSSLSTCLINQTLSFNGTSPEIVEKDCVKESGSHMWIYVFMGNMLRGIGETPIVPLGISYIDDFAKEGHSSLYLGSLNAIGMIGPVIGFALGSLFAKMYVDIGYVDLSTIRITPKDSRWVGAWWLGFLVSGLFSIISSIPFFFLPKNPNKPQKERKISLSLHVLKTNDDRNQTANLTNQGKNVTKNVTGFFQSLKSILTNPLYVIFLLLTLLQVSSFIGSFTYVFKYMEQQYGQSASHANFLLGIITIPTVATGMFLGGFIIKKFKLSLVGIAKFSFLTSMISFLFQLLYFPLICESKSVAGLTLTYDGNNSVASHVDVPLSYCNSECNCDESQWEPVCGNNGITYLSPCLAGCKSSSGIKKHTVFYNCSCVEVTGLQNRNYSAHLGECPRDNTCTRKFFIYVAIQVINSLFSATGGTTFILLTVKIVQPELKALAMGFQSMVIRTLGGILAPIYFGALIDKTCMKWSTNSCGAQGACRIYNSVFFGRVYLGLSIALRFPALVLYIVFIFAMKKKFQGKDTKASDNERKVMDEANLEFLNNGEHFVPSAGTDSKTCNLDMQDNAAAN
# [4] = biological target: T2, BCRP (Homo sapiens, UniProt Q9UNQ0); assay: B to A transport of [3-H]estrone-3-sulfate in LLC-PK1-BCRP cells; type: in vitro ADME; conditions: human, LLC-PK1-BCRP cell monolayers on filter membranes, probe [3H]estrone-3-sulfate (0.1 μM), B to A transport
# T2 sequence (Q9UNQ0 1-655): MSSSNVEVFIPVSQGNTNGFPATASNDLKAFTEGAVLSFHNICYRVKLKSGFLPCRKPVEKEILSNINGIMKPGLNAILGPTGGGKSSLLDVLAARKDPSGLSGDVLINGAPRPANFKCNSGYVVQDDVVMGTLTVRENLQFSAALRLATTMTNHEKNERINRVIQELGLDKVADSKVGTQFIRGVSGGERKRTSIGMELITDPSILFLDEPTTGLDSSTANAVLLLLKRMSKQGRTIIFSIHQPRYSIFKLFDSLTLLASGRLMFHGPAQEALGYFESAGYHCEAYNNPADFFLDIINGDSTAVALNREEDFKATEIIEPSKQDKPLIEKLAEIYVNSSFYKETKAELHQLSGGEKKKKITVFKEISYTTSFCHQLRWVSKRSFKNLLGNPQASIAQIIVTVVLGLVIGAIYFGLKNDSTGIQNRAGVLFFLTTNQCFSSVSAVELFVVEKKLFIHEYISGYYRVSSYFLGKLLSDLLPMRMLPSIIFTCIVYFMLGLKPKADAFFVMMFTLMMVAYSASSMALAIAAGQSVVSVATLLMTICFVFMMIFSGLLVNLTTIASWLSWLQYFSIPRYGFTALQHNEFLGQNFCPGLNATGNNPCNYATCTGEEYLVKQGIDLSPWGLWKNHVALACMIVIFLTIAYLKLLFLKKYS
# [5] = biological target: CYP3A4 (Homo sapiens, UniProt P08684); assay: Inhibition of CYP3A4-mediated midazolam 1′-hydroxylase in ultrapooled human liver microsomes; type: in vitro ADME; conditions: for IC50: CYP3A4 midazolam 1′-hydroxylase
# CYP3A4, sequence (P08684 2-503): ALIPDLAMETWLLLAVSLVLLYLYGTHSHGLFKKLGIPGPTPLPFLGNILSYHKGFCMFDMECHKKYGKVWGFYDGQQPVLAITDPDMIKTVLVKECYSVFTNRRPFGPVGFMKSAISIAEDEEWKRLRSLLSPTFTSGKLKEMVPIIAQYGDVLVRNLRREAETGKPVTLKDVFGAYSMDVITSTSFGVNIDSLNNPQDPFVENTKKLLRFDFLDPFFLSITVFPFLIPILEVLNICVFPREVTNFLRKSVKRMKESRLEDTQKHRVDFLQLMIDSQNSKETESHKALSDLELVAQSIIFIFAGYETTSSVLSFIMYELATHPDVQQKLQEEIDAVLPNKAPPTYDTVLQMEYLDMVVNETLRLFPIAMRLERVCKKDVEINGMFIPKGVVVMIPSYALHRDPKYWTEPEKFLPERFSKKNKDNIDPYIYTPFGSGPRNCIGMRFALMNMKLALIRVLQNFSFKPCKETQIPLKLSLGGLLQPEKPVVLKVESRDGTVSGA
# Experimental: The inhibitory potentials (IC50 values) of APINACA and typical CYP inhibitors on CYP 1A2, 2A6, 2C8, 2C9, 2C19, 2D6, and 3A4 activities in pooled human liver microsomes were evaluated following our previous method using a cocktail of CYP substrates, followed by LC–MS/MS [43]. […] After 3 min of preincubation at 37 °C, the reaction mixtures were incubated for 15 min at 37 °C with the addition of NADPH in a shaking water bath. The reaction was stopped by adding 100 μL of ice cold methanol containing internal standards (d9-1′-hydroxybufuralol for 1′-hydroxybufuralol, 4′-hydroxydiclofenac, 7-hydroxycoumarin, 1′-hydroxymidazolam, and 4′-hydroxymephenytoin; ^13C2, ^15N-acetaminophen for acetaminophen and N-desethylamodiaquine). The incubation mixtures were centrifuged at 13,000× g for 8 min at 4 °C, and 50 μL of each supernatant was diluted with 50 μL of water. Aliquots (5 μL) of the diluted supernatants were analyzed by LC–MS/MS. All assays were performed in triplicate, and the average values were used for subsequent calculations.
# To measure the time-dependent inhibition, human liver microsomes were preincubated with the various concentrations of APINACA (final concentrations of 0.1−100 μM) and NADPH for 30 min at 37 °C. Next, the reaction mixtures were incubated with a seven-CYP probe substrate cocktail or bupropion for 15 min at 37 °C. The control reaction was performed by adding methanol instead of the test compounds.
# The column and autosampler temperatures were 40 °C and 4 °C, respectively.
# as §1, §2
smiles,measurement,setting,value
"CCCCCn1nc(C(=O)NC23CC4CC(CC(C4)C2)C3)c2ccccc21 [APINACA, N-(1-adamantyl)-1-pentyl-1H-indazole-3-carboxamide]",pIC50,[1],< 4.00
same,IC50,"[1]; read-out: IC50 (μM) With Preincubation, CYP2B6 bupropion hydroxylase, ultrapooled human liver microsomes, 30-min preincubation with NADPH",> 100 µM
same,pIC50,[2],< 3.60
same,pIC50,[3],< 3.60
same,pIC50,[4],< 4.00
same,IC50,"[5]; IC50 (μM) No Preincubation, 2.5 μM midazolam, no preincubation",16.9 µM
same,IC50,"[5]; IC50 (μM) With Preincubation, 30-min preincubation with NADPH",4.2 µM
same,fold lower IC50 of CYP3A4 midazolam 1′-hydroxylase after 30-min preincubation than with no preincubation,[5]; NADPH,ca. 4 fold
